# Results from PMC8405639, “2-Carba-lysophosphatidic acid is a novel β-lysophosphatidic acid analogue with high potential for lysophosphatidic acid receptor activation and autotaxin inhibition” (Scientific Reports, 2021).
# pEC50: −log10 of the molar value.
# How the values were obtained:
# [1] = system: extracellular signal-regulated kinase (ERK) phosphorylation; test: Western blot analysis of phosphorylated ERK in HeLa cells; type: cell-based; details: HeLa cells preincubated with 10 µM Ki16425 for 30 min
# Experimental: Figure 3 Effects of 2-carba-lysophosphatidic acid (2carbaLPA) on the phosphorylation of the extracellular signal-regulated kinase (ERK) protein. HeLa cells were preincubated with 10 µM Ki16425 for 30 min at 37 °C and then incubated with 10 µM 2carbaLPA, lysophosphatidic acid (LPA) 18:1, or vehicle for 5 min at 37 °C. Protein levels of phosphorylated ERK, total ERK, and α-tubulin were determined by western blot analysis. The full-length blots are shown in the Supplementary Fig. S2.
# HeLa cells were obtained from RIKEN RBC Cell Bank (Tsukuba, Japan). […] Cells were harvested using 0.125 M Tris–HCl (pH 6.8) supplemented with 4% sodium dodecyl sulphate (SDS), 20% glycerol, 10% 2-mercaptoethanol, and 0.01% bromophenol blue. Proteins were separated by SDS–polyacrylamide gel electrophoresis, and the proteins were transferred onto an Immobilon-P Transfer Membrane (Millipore, Burlington, MA, USA). The membrane was incubated with primary antibodies: anti-phospho-ERK (pERK), anti-ERK, and anti-tubulin (all at 1:1,000 dilution, Cell Signaling Technology, Danvers, MA, USA). Next, after washing, the membrane was treated with horseradish peroxidase-conjugated anti-rabbit IgG (1:1000 dilution; Cell Signaling Technology). Immunodetection was performed using an enhanced chemiluminescence system (EzWestLumi plus, ATTO Corporation, Tokyo, Japan) and ImageQuant LAS 4000 (GE healthcare, Buckinghamshire, UK).
# [2] = cPA analogue stability in the 293A cell medium; type: in vitro ADME; details: 10 µM, 1 h, 37 °C, 293A (HEK) cell medium
# Experimental: Supplementary Figure S3. Cyclic phosphatidic acid (cPA) analogue stability in the HEK cell medium. Each cPA analogue (final concentration: 10 µM) was incubated with the HEK cell medium for 1 h at 37 °C. The remaining cPA analogue was quantified using liquid chromatography with tandem mass spectrometry (LC-QqQ) and calculated based on the percentage (%) ratio of the final concentration after incubation to the initial concentration. Data are represented as mean ± standard deviation (n = 3 samples).
# 293A cells were prepared in Hank’s balanced salt solution (HBSS) in 96-well plates. […] After incubation for 1 h at 37 ℃, 80 µL of the supernatant was collected and mixed with 320 µL of acidic methanol, including LPA 17:0 and cPA 17:0 (final concentration: 0.2 µM each; Avanti Polar Lipids, Alabaster, AL, USA).
# [3] = biological target: T1, hLPA1 (Homo sapiens, UniProt Q92633); test: TGFα-shedding assay, LPA1; type: cell-based; details: 293A cells, AP-TGFα release
# T1 construct: expressed in transfected cells; host or cells: 293A cells
# Experimental: Figure 4 Agonistic activity of 2-carba-lysophosphatidic acid (2carbaLPA) and cyclic phosphatidic acid (cPA) analogues toward six lysophosphatidic acid (LPA) receptors. 293A cells expressing LPA receptors were stimulated with the indicated concentration of LPA, 2carbaLPA, and cPA analogues. Receptor-specific alkaline phosphatase-tagged transforming growth factor-α release was calculated by subtracting the responses in the empty vector-transfected cells from those in the receptor-expressing cells. Data are represented as standard error of the mean of three independent replicates.
# 293A cells (Life Technologies, Tokyo, Japan) were cultured in DMEM (Nissui Pharmaceutical, Tokyo, Japan) supplemented with 10% foetal calf serum (Gibco, Waltham, MA, USA) in an incubator at 37 °C and 5% CO2. This assay was conducted according to a modified version of a method described previously. To improve signal detection, cells for the analysis of LPA1, LPA2, LPA4, and LPA5 were transfected with Gα-chimeric proteins, whereas those for LPA4, LPA5, LPA6 analysis were treated with the LPA1–3 antagonist Ki16425. The cells were co-transfected with vectors-expressing human LPA1–6, alkaline phosphatase-tagged TGFα (AP-TGFα). As negative controls, cells transfected with an empty vector instead of the receptor-expressing vector were used. After 24 h, the cells were resuspended in Hank’s balanced salt solution (HBSS), seeded in 96-well plates, and stimulated with cPA analogues administered at tenfold concentration of the final concentration. The cPA analogues were diluted with HBSS, 0.01% protease and fatty acid-free BSA (SERVA Electrophoresis GmbH, Heidelberg, Germany). Cells for LPA4, LPA5, and LPA6 analysis were treated with Ki16425 (final concentration: 10 μM), 5 min before treatment with the cPA analogues. After incubation for 1 h at 37 °C, 80 µL of the supernatant was transferred to fresh 96-well plates. An equal volume of 1 mM p-NPP solution [120 mM Tris–HCl (pH 9.5), 40 mM NaCl, and 10 mM MgCl2] was added to both the supernatant and the cells. Alkaline phosphatase activity was calculated by measuring absorbance at 405 nm using the Cytation 3 plate reader (BioTek, Winooski, VT, USA).
# T1 sequence (Q92633 whole entry): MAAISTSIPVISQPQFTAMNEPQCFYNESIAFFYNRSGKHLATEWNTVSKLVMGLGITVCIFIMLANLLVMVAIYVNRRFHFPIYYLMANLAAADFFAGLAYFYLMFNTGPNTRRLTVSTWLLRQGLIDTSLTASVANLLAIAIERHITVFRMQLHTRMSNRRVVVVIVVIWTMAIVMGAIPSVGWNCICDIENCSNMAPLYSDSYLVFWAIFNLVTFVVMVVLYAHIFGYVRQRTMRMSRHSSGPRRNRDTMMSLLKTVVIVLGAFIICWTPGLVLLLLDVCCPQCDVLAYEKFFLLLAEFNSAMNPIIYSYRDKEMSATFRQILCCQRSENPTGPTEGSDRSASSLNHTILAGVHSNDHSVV
Compound,Effect on 2carbaLPA-induced ERK activation [1],Compound remaining after incubation [2],pEC50 ([3]; 1 h),Emax ([3]; read-out: Emax ± SEM hLPA1 (converted))
Cc1noc(-c2ccc(CSCCC(=O)O)cc2)c1NC(=O)OC(C)c1ccccc1Cl (stereo not shown) [Ki16425],inhibited,–,–,–
"CCCCCCCCC=CCCCCCCCC(=O)OCC(O)COP(=O)(O)O (stereo not shown) [LPA 18:1, 1-Oleoyl-LPA]",–,approximately 70%,7.94,26.9%
